# Where two headings read alike, the source gives them in different places.
# B1: EmrE (WT-EmrE), multidrug efflux pump from Escherichia coli (natural protein)
# chain: MNPYIYLGGAILAEVIGTTLMKFSEGFTRLWPSVGTIICYCASFWLLAQTLAYIPTGIAYAIWSGVGIVLISLLSWGFFGQRLDLPAIIGMMLICAGVLIINLLSRSTPH
# B2: Saposin A (natural protein)
# chain: SLPCDICKDVVTAAGDMLKDNATEEEILVYLEKTCDWLPKPNMSASCKEIVDSYLPVILDIIKGEMSRPGEVCSALNLCESLQ
# Experiments:
# EmrE [1] = biological target: T1, EmrE (Escherichia coli, UniProt P23895, K22A); experiment: TROSY-HSQC NMR; format: binding
# T1 sequence (P23895 1-110 K22A): B1 chain
# EmrE [2] = biological target: T2, EmrE (Escherichia coli, UniProt P23895); experiment: fluorescence polarization; format: binding
# T2 sequence (P23895 1-110): B1 chain
# EmrE [3] = biological target: T3, EmrE (Escherichia coli, UniProt P23895, K22R); experiment: fluorescence polarization; format: binding
# T3 sequence (P23895 1-110 K22R): B1 chain
# EmrE [4] = biological target: T1, EmrE; experiment: fluorescence polarization; format: binding
# native MS [5] = biological target: the molecule itself; experiment: native MS
# native MS [6] = biological target: the molecule itself; experiment: native MS; remark: listed apart in the source
molecule,measurement,setting,value
c1ccc([P+](c2ccccc2)(c2ccccc2)c2ccccc2)cc1 [tetraphenylphosphonium bromide],TROSY-HSQC NMR,EmrE [1],a portion of the drug-free K22A-EmrE was saturated with the substrate tetraphenylphosphonium bromide (TPP+)
"CC1=CC(C)=[N+]2C1=C(c1ccc3c(c1)OCCOCCOCCOCCOCCO3)c1c(C)cc(C)n1[B-]2(F)F [benzo[18]crown-6 BODIPY, 10-(2,3,5,6,8,9,11,12,14,15-decahydrobenzo[b][1,4,7,10,13,16]Hexaoxacyclooctadecin-18-yl)-5,5-difluoro-1,3,7,9-tetramethyl-5H-4l4,5l4-dipyrrolo[1,2-c:2′,1′-f][1,3,2]diazaborinine]",Kd,EmrE [2],97.4 nM
same,Kd,EmrE [3],226 nM
same,Kd,EmrE [4],154 nM
B1,stoichiometry N,native MS [5],2
B2,stoichiometry N,native MS [5],2
same,stoichiometry N,native MS [6],4
